From patent publication US11470846B2, “Herbicidal pyridino-/pyrimidino-thiazoles” (SYNGENTA PARTICIPATIONS AG, priority 2014, dated 2022)

Assays:
Assay type in all cases: in vivo
[1] = test system: Alopecurus myosuroides (ALOMY); assay: Pre-emergence herbicidal activity; settings: pre-emergence application, 1000 g/Ha, evaluated after 13 days, scale 0-5
Method: (§1) B1 Pre-Emergence Herbicidal Activity
(§2) Seeds of a variety of test species were sown in standard soil in pots: Triticum aestivium (TRZAW), Oryza sativa (ORYSA), Avena fatua (AVEFA), Alopecurus myosuroides (ALOMY), Echinochloa crus-galli (ECHCG), Lolium perenne (LOLPE), Zea Mays (ZEAMX), Abutilon theophrasti (ABUTH), Amaranthus retroflexus (AMARE) and Setaria faberi (SETFA). After cultivation for one day (pre-emergence) under controlled conditions in a glasshouse (at 24/16° C., day/night; 14 hours light; 65% humidity), the plants were sprayed with an aqueous spray solution derived from the formulation of the technical active ingredient in acetone/water (50:50) solution containing 0.5% Tween 20 (polyoxyethelyene sorbitan monolaurate, CAS RN 9005-64-5). The test plants were then grown in a glasshouse under controlled conditions (at 24/16° C., day/night; 14 hours light; 65% humidity) and watered twice daily. After 13 days, the test was evaluated (5=total damage to plant; 0=no damage to plant).

Avena fatua (AVEFA) [2] = assay: Pre-emergence herbicidal activity; settings: pre-emergence application, 1000 g/Ha, evaluated after 13 days, scale 0-5
Method: as §1, §2

[3] = test system: Echinochloa crus-galli (ECHCG); assay: Pre-emergence herbicidal activity; settings: pre-emergence application, 1000 g/Ha, evaluated after 13 days, scale 0-5; Table 5
Method: as §1, §2

Lolium perenne (LOLPE) [4] = assay: Pre-emergence herbicidal activity; settings: pre-emergence application, 1000 g/Ha, evaluated after 13 days, scale 0-5; Table 5
Method: as §1, §2

Oryza sativa (ORYSA) [5] = assay: Pre-emergence herbicidal activity; settings: pre-emergence application, 1000 g/Ha, evaluated after 13 days, scale 0-5
Method: as §1, §2

[6] = test system: Triticum aestivium (TRZAW); assay: Pre-emergence herbicidal activity; settings: pre-emergence application, 1000 g/Ha, evaluated after 13 days, scale 0-5
Method: as §1, §2

[7] = test system: Alopecurus myosuroides (ALOMY); assay: Post-emergence herbicidal activity; settings: post-emergence application, 1000 g/Ha, evaluated after 13 days, scale 0-5
Method: (§3) B2 Post-Emergence Herbicidal Activity
(§4) Seeds of a variety of test species were sown in standard soil in pots: Triticum aestivium (TRZAW), Oryza sativa (ORYSA), Avena fatua (AVEFA), Alopecurus myosuroides (ALOMY), Echinochloa crus-galli (ECHCG), Lolium perenne (LOLPE), Zea Mays (ZEAMX), Abutilon theophrasti (ABUTH), Amaranthus retroflexus (AMARE) and Setaria faberi (SETFA). After 8 days cultivation (post-emergence) under controlled conditions in a glasshouse (at 24/16° C., day/night; 14 hours light; 65% humidity), the plants were sprayed with an aqueous spray solution derived from the formulation of the technical active ingredient in acetone/water (50:50) solution containing 0.5% Tween 20 (polyoxyethelyene sorbitan monolaurate, CAS RN 9005-64-5). The test plants were then grown in a glasshouse under controlled conditions (at 24/16° C., day/night; 14 hours light; 65% humidity) and watered twice daily. After 13 days, the test was evaluated (5=total damage to plant; 0=no damage to plant).

Avena fatua (AVEFA) [8] = assay: Post-emergence herbicidal activity; settings: post-emergence application, 1000 g/Ha, evaluated after 13 days, scale 0-5
Method: as §3, §4

[9] = test system: Echinochloa crus-galli (ECHCG); assay: Post-emergence herbicidal activity; settings: post-emergence application, 1000 g/Ha, evaluated after 13 days, scale 0-5; Table 7
Method: as §3, §4

Lolium perenne (LOLPE) [10] = assay: Post-emergence herbicidal activity; settings: post-emergence application, 1000 g/Ha, evaluated after 13 days, scale 0-5; Table 7
Method: as §3, §4

Oryza sativa (ORYSA) [11] = assay: Post-emergence herbicidal activity; settings: post-emergence application, 1000 g/Ha, evaluated after 13 days, scale 0-5
Method: as §3, §4

[12] = test system: Triticum aestivium (TRZAW); assay: Post-emergence herbicidal activity; settings: post-emergence application, 1000 g/Ha, evaluated after 13 days, scale 0-5
Method: as §3, §4

Structure (SMILES) | Control of weed species, ALOMY (damage score) [1] | Control of weed species, AVEFA (damage score) (Avena fatua (AVEFA) [2]) | Control of weed species, ECHCG (damage score) [3] | Control of weed species, LOLPE (damage score) (Lolium perenne (LOLPE) [4]) | Control of weed species, ORYSA (damage score) (Oryza sativa (ORYSA) [5]) | Control of weed species, TRZAW (damage score) [6] | Control of weed species, ALOMY (damage score) [7] | Control of weed species, AVEFA (damage score) (Avena fatua (AVEFA) [8]) | Control of weed species, ECHCG (damage score) [9] | Control of weed species, LOLPE (damage score) (Lolium perenne (LOLPE) [10]) | Control of weed species, ORYSA (damage score) (Oryza sativa (ORYSA) [11]) | Control of weed species, TRZAW (damage score) [12]
CN(C(=O)OC(C)(C)C)c1sc(-c2cncc(Cl)c2)nc1C(F)(F)F [Compound A27] | 0 | 2 | 2 | 2 | 0 | 0 | 1 | 4 | 5 | 3 | 1 | 2
CN(C(=O)OC(C)(C)C)c1sc(-c2cccnc2)nc1F [Compound A32, tert-butyl N-[4-fluoro-2-(3-pyridyl)thiazol-5-yl]-N-methyl-carbamate] | 0 | 1 | 2 | 1 | 2 | 0 | 1 | 3 | 3 | 2 | 1 | 0
CN(C(=O)OC(C)(C)C)c1sc(-c2cncc(F)c2)nc1Br [Compound A51] | 0 | 2 | 1 | 3 | 0 | 0 | 0 | 4 | 4 | 2 | 0 | 0
Cc1nc(-c2cc(F)c[n+]([O-])c2)sc1N(C)C(=O)OC(C)(C)C [Compound A62, tert-butyl N-[2-(5-fluoro-3-pyridyl N-oxide)-4-methyl-thiazol-5-yl]-N-methyl-carbamate] | 2 | 2 | 3 | 2 | 1 | 1 | 1 | 4 | 4 | 4 | 0 | 1
Cc1nc(-c2cncc(S(C)(=O)=O)c2)sc1N(C)C(=O)OC(C)(C)C [Compound A9] | 0 | 0 | 0 | 0 | 0 | 0 | 1 | 2 | 2 | 1 | 1 | 2
CN(C(=O)OC(C)(C)C)c1sc(-c2cccnc2)nc1C(F)(F)F [Compound A25] | 1 | 4 | 4 | 3 | 1 | 0 | 1 | 4 | 5 | 4 | 1 | 2
Cc1nc(-c2cncc(C(N)=O)c2)sc1N(C)C(=O)OC(C)(C)C [Compound A8] | 0 | 0 | 0 | 0 | 0 | 0 | 1 | 2 | 3 | 0 | 1 | 2
Cc1nc(-c2cncc(OCc3ccccc3)c2)sc1N(C)C(=O)OC(C)(C)C [Compound A14] | 0 | 0 | 0 | 1 | 0 | 1 | 0 | 0 | 1 | 0 | 0 | 0
Cc1nc(-c2cncc(F)c2)sc1N1CCOC1=O [Compound A38, 3-[2-(5-fluoro-3-pyridyl)-4-methyl-thiazol-5-yl]oxazolidin-2-one] | 1 | 1 | 5 | 2 | 3 | 0 | 1 | 4 | 5 | 3 | 0 | 1
Cc1nc(-c2cncc(Cl)c2)sc1N(C)C(=O)OC(C)(C)C [Compound A4] | 1 | 4 | 4 | 2 | 0 | 0 | 0 | 5 | 4 | 2 | 1 | 1
Cc1nc(-c2cncc(OC(F)F)c2)sc1N(C)C(=O)OC(C)(C)C [Compound A16, tert-butyl N-[2-[5-(difluoromethoxy)-3-pyridyl]-4-methyl-thiazol-5-yl]-N-methyl-carbamate] | 0 | 3 | 4 | 4 | 1 | 3 | 3 | 5 | 5 | 4 | 0 | 4
